What was measured:
Tigriopus fulvus = test: Copepods efficacy test; format: in vivo; conditions: Tigriopus fulvus nauplii
Description: For that, efficacy test was carried out by using Tigriopus fulvus, it is a shallow-water marine species (Crustacea, Copepoda, Harpactico.da) characterized by […], all variously deep-orange coloured: five nauplius substages and five copepodid substages. Nauplii have a subcircular shape, are characterized by a single red eye, and develop within 6 to 7 days. Copepods are recognisable because of their abdominal segment formation, although the last substage is difficult to distinguish from the adult female at the end of the 7-day development period. Adult sizes range from 0.8 to 1.0 mm for males and from 1.0 to 1.2 mm for females. Sexual dimorphism is detectable only by the pincer shape of antenna 1, whereas ovigerous females can quickly be recognized because of their large egg sacs. T. fulvus is a vector for the transport of Vibrio spp; it is well documented that the persistence of V. cholerae in the aquatic environment is facilitated by its ability to colonize various substrates, including zooplankton surfaces (i.e., copepods).
Copepods, sampled in their natural habitat, have been moved through suitable containers to the laboratory, where they were subjected to a specific treatment. They were first filtered through a […] mesh, then washed with sterile sea-water and transferred to small 3 litres aquaria, with natural filtered (0.22 μm) sea water, T=20+0,5° C. Copepods were fed with microalgae (Chlorella spp, Tetraselmis suecica) and commercial yeast (Saccharomices spp). After the acclimatization period (one month), about 500 females were chosen and separated. The naupliar stage was then used for the efficacy test. […] Nauplii were used 24 hours after their hatching, multiwell plates (25 wells) were used for these tests, about 15 individuals for each well. Each concentration was performed in six replicates, plates were kept at dark, at 20° C.

[1] = system: cysts (resting stage) of Scrippsiella trochoidea; test: Inhibition of dynoflagellates cysts hatching; format: cell-based; conditions: after 6 days
Excerpt: For this test, cysts (resting stage) of Scrippsiella trochoidea (Dinophyta) were used. Scrippsiella trochoidea (order Peridiniales, subfamily Calciodinelloideae) i.e. a non-toxic autotrophic orthoperidinioid dinoflagellate producing calcareous resting cysts which are abundant in coastal marine sediments. The maturation period for S. trochoidea cysts rang between 2 and 5 weeks.
S. trochoidea cysts are very convenient for experimental purposes because their sorting and culturing is comparatively easy, the cysts being relatively abundant in sediments.
Sediments were sampled in Mar Piccolo (Taranto). The utilized method allowed us to pick up the superficial sediment layer of a certain area entirely, where most of the cysts is present. The sample was immediately kept at dark at 4° C. Sediments collected about one year ago were utilized, in order to be sure that the hatching refractoriness period of cysts was finished. The sample (about 2 ml of sediment) was then dissolved in 0,45 μm filtered natural sea-water, sonified for 1 minute (Branson Sonifier) in order to brake sediment clots, resuspended in filtered sea-water and filtered on a Endecotts sieve, with a 20 μm steel mesh. […]

[2] = Hydrolysis test carried out in the dark; format: physicochemical
Excerpt: From the hydrolysis test carried out in the dark, MNB and MPB appear to be readily degradable at a pH compatible with environmental conditions.

[3] = Photo-degradability under daylight and UV; format: physicochemical; conditions: 10 ppm in drinking water (pH 6,5-7,5)
Description: Similarly, the same behaviour is confirmed when evaluating the photo-degradability under daylight and UV (the irradiation test is carried out on a solution of 10 ppm in drinking water (pH 6,5-7,5)).

[4] = system: Bacillus licheniformis NCIMB 1525; test: Microdilution broth MIC/MBC; format: cell-based; conditions: 24 h at 25° C., dark
Description: (§1) b) Serial dilution test: the antibiotic activity is determined quantitatively by using the known sensitivity of a test strain towards an antibiotic which is expressed numerically as the minimal inhibitory concentration (MIC) and the minimal bactericidal concentration (MBC).
(§2) Procedure: serial dilutions of the antibiotic to be tested are pipetted into the antibiotic broth, this is then inoculated with a defined quantity of the relevant test strain (FIG. 4).
(§3) The Minimum Inhibitory Concentration (MIC) was defined as the lowest concentration of antibiotic which prevented visual turbidity after incubation.
(§4) The Minimum Bactericidal Concentration (MBC) is defined as the lowest concentration of an antibiotic killing the majority of a bacterial inoculum (99.9%, equivalent to a thousand-fold reduction of the inoculum). Method: Following a broth dilution MIC test, from each tube in the dilution series a defined volume (20 μL) is spread onto plates without antibiotics. To minimize the carry-over effect of antibiotic from the test tubes, let the drop “dry” before the inoculum is spread over the surface (a section of the agar plate). The plates were incubate overnight (longer for slow growing bacteria) and then counted the number of colonies growing from each of the test tubes. The number of colonies corresponding to a thousand-fold reduction (MBC) can be calculated if the colony count of the start inoculum is known.
(§5) The microdilution broth method was used to evaluate the MIC and the MBC against 15 aerobic bacteria isolated from culture collection and seawater. Antimicrobial dilutions were performed using Mueller Hinton Broth supplemented with divalent cations. The tested product was dissolved in the medium to obtain a final range concentration between 0,12 to 64 mg/l.
(§6) Antimicrobial assays were performed in dark, and results were read after 24 h of incubation at 25° C. Each test towards the same indicator strain was performed in three replicates.
(§7) The assayed strains were environment isolates identified by an internal number or standard strains identified by the ATCC or NCIMB accession number.

[5] = system: Bacillus subtilis ATCC 10774; test: Microdilution broth MIC/MBC; format: cell-based; conditions: 24 h at 25° C., dark
Description: as §1, §2, §3, §4, §5, §6, §7

Corynebacterium sp. CT15 = test: Microdilution broth MIC/MBC; format: cell-based; conditions: 24 h at 25° C., dark
Description: as §1, §2, §3, §4, §5, §6, §7

Micrococcus sp. AD10 = test: Microdilution broth MIC/MBC; format: cell-based; conditions: 24 h at 25° C., dark
Description: as §1, §2, §3, §4, §5, §6, §7

Micrococcus sp. AE11 = test: Microdilution broth MIC/MBC; format: cell-based; conditions: 24 h at 25° C., dark
Description: as §1, §2, §3, §4, §5, §6, §7

[6] = system: Pseudomonas aeruginosa ATCC 10145; test: Microdilution broth MIC/MBC; format: cell-based; conditions: 24 h at 25° C., dark
Description: as §1, §2, §3, §4, §5, §6, §7

Vibrio sp. CH45 = test: Microdilution broth MIC/MBC; format: cell-based; conditions: 24 h at 25° C., dark
Description: as §1, §2, §3, §4, §5, §6, §7

[7] = system: nauplii of Artemia salina; test: Artemia efficacy test
Description: This efficacy test was carried out by using nauplii of Artemia salina (Crustacea: Anacostraca).
Cysts reactivation has been carried out 24 hours before the execution of tests. […] Beakers, hermetically closed and aerated with pre-filtered air (0,22 μm), were incubated for 24 hours at 25° C., without photoperiod. For the tests E3 developing stage nauplii were employed (24 hours after cysts reactivation). Nauplii were divided from not-opened cysts by exploiting their positive fototactism: a light beam is placed near the beaker, obtaining a considerable concentration of organisms, that can be taken by using a Pasteur pipette. The following MNB concentrations have been tested: 0-0.05-0.1-0.5-1-5-10 ppm (mg/L). These solutions have been prepared immediately before carrying out the tests using natural filtered (0.22 μm) sea water (NFSW). For tests, multiwell plates (25 wells) have been used, each well has a capacity of 4 ml. In the first column there was the control solution (water without product), and in the following the different concentrations in increasing order. In each well about 20-25 individuals were added, each concentration was repeated in four replicates. Multiwell plates, hermetically closed with parafilm and lid, were incubated at dark for 24-48 hours at 25° C. […] Larvae were considered dead when there was completely no movement for 10 seconds.
Mortality percentage was calculated as the mean of the four replicates for each concentration. Data were analysed by using the Probits method, in order to calculate the lethal concentration for the 50% of the population (LC50).

CC1(S(=O)(=O)O)CC(=O)c2ccccc2C1=O.NC(=O)c1cccnc1 (centres unmarked) [MNB, menadione nicotinamide bisulphite]
LC50 (Tigriopus fulvus; 24 hours): 0.156 µg/mL | LC50 (Tigriopus fulvus; 48 hours): 0.071 µg/mL | LC50 (Tigriopus fulvus; 72 hours): 0.039 µg/mL | LC50 [1]: 2,65 mg/L | ½ LIFE (hydrolysis) ([2]; pH 6, 8, in the dark): 48 h | ½ LIFE (hydrolysis) ([2]; pH 9, in the dark): <3 h | Light exp. Tot Degr. [3]: 48 h | Light exp. ½ life [3]: 10 h | MBC [4]: 32 µg/mL | MIC [4]: 16 µg/mL | MBC [5]: 32 µg/mL | MIC [5]: 12 µg/mL | MBC (Corynebacterium sp. CT15): 16 µg/mL | MIC (Corynebacterium sp. CT15): 8 µg/mL | MBC (Micrococcus sp. AD10): 32 µg/mL | MIC (Micrococcus sp. AD10): 16 µg/mL | MBC (Micrococcus sp. AE11): 16 µg/mL | MIC (Micrococcus sp. AE11): 8 µg/mL | MBC [6]: >64 µg/mL | MIC [6]: >64 µg/mL | MBC (Vibrio sp. CH45): 16 µg/mL | MIC (Vibrio sp. CH45): 16 µg/mL | LC1 ([7]; 24 hours): 3.170 mg/L | LC50 ([7]; 24 hours): 7.625 µg/mL | LC1 ([7]; 48 hours): 0.548 mg/L | LC50 ([7]; 48 hours): 1.840 µg/mL
